Assay results taken from patent EP1774974A1, “Use of hyperforin or St. John's Wort in the treatment and prevention of metabolic syndrome” (Roots, Ivar, priority 2005, dated 2007).

Columns and labels:
[1] = test system: HepG2 cells; test: Affymetrix HG U95Av2 microarray gene expression analysis; type: cell-based, human; conditions: 1 µM hyperforin, 24 h
Method: (§1) HepG2 cells (human hepatocellular carcinoma, German Collection of Microorganisms and Cell Cultures, DSMZ, Braunschweig, Germany) were grown in Dulbecco's Modified Eagle Medium containing 1 g/l D-glucose and 5% fetal bovine serum with 5% CO2 at 37°C. Cells were seeded in 6-well dishes and grown to confluence. Content of 1 Esbericum™ capsule (total hypericin […], Schaper & Bruemmer, Salzgitter, Germany) was extracted with 1 ml ethanol. Cells were treated with either this extract (final concentration 0.1% (v/v)), or 1 µM hyperforin (Calbiochem, Schwalbach, Germany), or 0.1 % ethanol (controls) for 24 h. Three independent experiments were performed.
(§2) Cells were washed twice with phosphate buffered saline, harvested in lysis buffer (Qiagen, Hilden, Germany) with a rubber-policeman and homogenised by centrifugation through a Qiashredder (Qiagen, Hilden, Germany). Preparation of total RNA was performed using a Qiagen RNeasy Mini Kit according to the manufacturer's instructions. RNA concentration was determined photometrically (Uvicon photometer, Kontron). RNA was either used immediately for cDNA synthesis or stored at -80°C.
Expression analysis was performed with Affymetrix HG U95Av2 microarray (Affymetrix, Santa Clara, CA). Synthesis of biotin-labelled cRNA and hybridisation were carried out following the Affymetrix protocol. Results were exported to Excei for analysis.

[2] = test system: HepG2 cells; test: Real-time RT-PCR gene expression analysis; type: cell-based, human; conditions: 1 µM hyperforin, 24 h, vs. control, geometric mean of three experiments
Method: as §1, §2
5 µg RNA was reverse transcribed in a total volume of 20 µl containing 200 U SuperScript™ II RT and 1x reaction buffer (Invitrogen, Karlsruhe, Germany), 500 ng pd(T)12-18 (Amersham Pharmacia Biotech, Freiburg, Germany) and 125 pmol/µl of each dNTP at 42°C for 1 h. Real-time PCR was performed with QuantiTect™ SYBR® Green PCR Kit (Qiagen, Hilden, Germany) according to the manufacturer's instructions. The reaction was carried out in a LightCycler (Roche, Mannheim, Germany), version 5.32, and analysed using the Second Derivative Maximum method.

[3] = vs. control, geometric mean of three experiments

Hyperforin
differentially regulated sequences that were upregulated [1]: 120 sequences | sequences identified as differentially regulated (p<0.05) [1]: 201 sequences | Fold change of ALDOA transcript, Array [1, 3]: 1.41 | Fold change of ENO2 transcript, Array [1, 3]: 2.75 | Fold change of FDPS transcript, Array [1, 3]: 0.53 | Fold change of IGFBP3 transcript, Array [1, 3]: 8.79 | Fold change of LDHA transcript, Array [1, 3]: 1.36 | Fold change of LDHB transcript, Array [1, 3]: 1.42 | Fold change of MVD transcript, Array [1, 3]: 0.26 | Fold change of PCK2 transcript, Array [1, 3]: 0.43 | Fold change of PFKFB3 transcript, Array [1, 3]: 1.83 | Fold change of PGK1 transcript, Array [1, 3]: 1.50 | Fold change of PKM2 transcript, Array [1, 3]: 1.40 | Fold change of SLC2A1 transcript, Array [1, 3]: 1.74 | Fold change of SLC2A3 transcript, Array [1, 3]: 3.57 | Fold change of SLC25A8 / UCP2 transcript, Array [1, 3]: 0.54 | Fold change of TM7SF2 transcript, Array [1, 3]: 0.52 | Fold change of ALDOA transcript, RT-PCR [2]: 1.42 | Fold change of FDPS transcript, RT-PCR [2]: 0.49 | Fold change of IGFBP3 transcript, RT-PCR [2]: 8.29 | Fold change of MVD transcript, RT-PCR [2]: 0.56 | Fold change of PCK2 transcript, RT-PCR [2]: 0.49 | Fold change of SLC2A1 transcript, RT-PCR [2]: 1.90 | Fold change of SLC2A3 transcript, RT-PCR [2]: 2.84
